Assay results from patent publication US9617244B2, “Antibacterial quinoline derivatives” (JANSSEN PHARMACEUTICA NV, priority 2012, dated 2017).
Values after ≈ are worked out from the molar mass of the structure shown.

What was measured:
[1] = tested on: Mycobacterium smegmatis (ATCC607); assay: In-vitro anti-bacterial activity against strain M. Smegmatis ATCC607; assay type: cell-based; settings: 90% inhibitory concentration for bacterial growth, Alamar Blue fluorescence; for IC90 MSM 607: 48 hours; for IC90: Mycolicibacterium smegmatis, ATCC607, 48 h, read-out: IC90 MSM 607
Protocol: D.1. In-Vitro Method for Testing Compounds for Anti-Bacterial Activity Against Strain M. Smegmatis ATCC607
Flat-bottom, sterile 96-well plastic microtiter plates were filled with 180 μl of sterile deionized water, supplemented with 0.25% BSA. Subsequently, stock solutions (7.8× final test concentration) of compounds were added in 45 μl volumes to a series of duplicate wells in column 2 so as to allow evaluation of their effects on bacterial growth. Serial five-fold dilutions (45 μl in 180 μl) were made directly in the microtiter plates from column 2 to 11 using a customised robot system (Zymark Corp., Hopkinton, Mass.). Pipette tips were changed after every 3 dilutions to minimize pipetting errors with high hydrophobic compounds. Untreated control samples with (column 1) and without (column 12) inoculum were included in each microtiter plate. Approximately 250 CFU per well of bacteria inoculum, in a volume of 100 μl in 2.8× Mueller-Hinton broth medium, was added to the rows A to H, except column 12. The same volume of broth medium without inoculum was added to column 12 in row A to H. The cultures were incubated at 37° C. for 48 hours in a humidified 5% CO2 atmosphere (incubator with open air valve and continuous ventilation). At the end of incubation, two days after inoculation, the bacterial growth was quantitated fluorometrically. Therefore Alamar Blue (10×) was added to all wells in a volume of 20 μl and plates were incubated for another 2 hours at […]
The fluorescence was read in a computer-controlled fluorometer (Cytofluor, Biosearch) at an excitation wavelength of 530 nm and an emission wavelength of 590 nm (gain 30). The percentage growth inhibition achieved by the compounds was calculated according to standard methods and expressed as IC90 (μg/ml) which defines the 90% inhibitory concentration for bacterial growth.

[2] = tested on: Staphylococcus aureus (ATCC29213); assay: In-vitro anti-bacterial activity, microtitre plate assay, IC90 determination (non-mycobacterial strains); assay type: cell-based; settings: 90% inhibitory concentration for bacterial growth, resazurin fluorescence; for IC90 STA B29213: 24 hours; for IC90: Staphylococcus aureus, ATCC29213, 24 h, read-out: IC90 STA B29213
Protocol: D.2. In-Vitro Method for Testing Compounds for Anti-Bacterial Activity Against Various Non-Mycobacterial Strains
Preparation of Bacterial Suspensions for Susceptibility Testing:
The bacteria used in this study were grown overnight in flasks containing 100 ml Mueller-Hinton Broth (Becton Dickinson—cat. no. 275730) in sterile de-ionized water, with shaking, at 37° C. Stocks (0.5 ml/tube) were stored at −70° C. until use. Bacteria titrations were performed in microtiter plates to detect the TCID50, in which TCID50 represents the dilution that gives rise to bacterial growth in 50% of inoculated cultures. In general, an inoculum level of approximately 100 TCID50 was used for susceptibility testing.
Anti Bacterial Susceptibility Testing: IC90 Determination
Flat-bottom, sterile 96-well plastic microtiter plates were filled with 180 μl of sterile deionized water, supplemented with 0.25% BSA. Subsequently, stock solutions (7.8× final test concentration) of compounds were added in 45 μl volumes in column 2 Serial five-fold dilutions (45 μl in 180 μl) were made directly in the microtiter plates from column 2 to reach column 11. Untreated control samples with (column 1) and without (column 12) inoculum were included in each microtiter plate. Depending on the bacteria type, approximately 10 to 60 CFU per well of bacteria inoculum (100 TCID50), in a volume of 100 μl in 2.8× Mueller-Hinton broth medium, was added to the rows A to H, except column 12. The same volume of broth medium without inoculum was added to column 12 in row A to H. The cultures were incubated at 37° C. for 24 hours under a normal atmosphere (incubator with open air valve and continuous ventilation). At the end of incubation, one day after inoculation, the bacterial growth was quantitated fluorometrically. Therefore resazurin (0.6 mg/ml) was added in a volume of 20 μl to all wells 3 hours after inoculation, and the plates were re-incubated overnight. A change in colour from blue to pink indicated the growth of bacteria. The fluorescence was read in a computer-controlled fluorometer (Cytofluor Biosearch) at an excitation wavelength of 530 nm and an emission wavelength of 590 nm. The % growth inhibition achieved by the compounds was calculated according to standard methods. The IC90 (expressed in μg/ml) was defined as the 90% inhibitory concentration for bacterial growth.

SMILES	IC90 MSM 607 [1] [µg/mL]	IC90 STA B29213 [2] [µg/mL]	IC90 [2] [µg/mL]	IC90 [1] [µg/mL]
COc1nc2ccc(Cl)cc2cc1C(c1ccc(Cl)cc1)C1(O)CCNC(CNc2cccnc2)C1 (centres unmarked) [Compound 470]	3.08 (≈ 5.88 µM)	5.23 (≈ 9.99 µM)	–	–
COc1nc2ccc(Cl)cc2cc1C(c1ccc(S(C)(=O)=O)cc1)C1(O)CCNC(c2ccc(F)cc2C)C1 (centres unmarked) [Compound 368]	14.06 (≈ 24.7 µM)	17.71 (≈ 31.1 µM)	–	–
Cc1cc(F)ccc1C1CC(O)(C(c2ccccc2)c2cc3cc(S(C)(=O)=O)ccc3[nH]c2=O)CCN1 (centres unmarked) [Compound 238]	>13.99	>13.99	–	–
CSc1ccc(C(c2cc3cc(Cl)ccc3[nH]c2=O)C2(O)CCNC(c3ccc(F)cc3C)C2)cc1 (centres unmarked) [Compound 350]	1.77 (≈ 3.38 µM)	2.80 (≈ 5.35 µM)	–	–
COc1nc2ccc(SC)cc2cc1C(c1ccc(Cl)cc1)C1(O)CCNC(CC2CCCCC2)C1 (centres unmarked) [Compound 288]	3.41 (≈ 6.49 µM)	4.29 (≈ 8.17 µM)	–	–
COc1nc2ccc(Cl)cc2cc1C(c1ccc(Cl)cc1)C1(O)CCNC(c2ccc(F)cc2C)C1 (single isomer, unassigned) [Compound 1]	1.66 (≈ 3.16 µM)	3.32 (≈ 6.32 µM)	–	–
COc1nc2ccc(Cl)cc2cc1C(c1ccc(Cl)cc1)C1(O)CCNCC1c1ccccc1 (centres unmarked) [Compound 409]	6.36 (≈ 12.9 µM)	2.01 (≈ 4.07 µM)	–	–
COc1nc2ccc(SC)cc2cc1C(c1cccc(Cl)c1)C1(O)CCNC(c2ccc(F)cc2C)C1 (centres unmarked) [Compound 164]	2.38 (≈ 4.43 µM)	4.23 (≈ 7.88 µM)	–	–
CSc1ccc2[nH]c(=O)c(C(c3ccc(Cl)cc3)C3(O)CCNC(CC4CCCCC4)C3)cc2c1 (centres unmarked) [Compound 296]	6.85 (≈ 13.4 µM)	3.43 (≈ 6.71 µM)	–	–
O=c1[nH]c2ccc(Br)cc2cc1C(c1ccc(Cl)cc1)C1(O)CCNC(Cc2ccc(F)c(F)c2)C1 (centres unmarked) [Compound 126]	3.06 (≈ 5.33 µM)	3.85 (≈ 6.71 µM)	–	–
COc1nc2ccc(SC)cc2cc1C(c1cccc(Cl)c1)C1(O)CCNC(c2ccc(F)cc2C)C1 (centres unmarked) [Compound 163]	1.20 (≈ 2.23 µM)	1.70 (≈ 3.17 µM)	–	–
Cc1cc(F)ccc1C1CC(O)(C(c2ccc(Cl)cc2)c2cc3cc(Cl)ccc3[nH]c2=O)CCN1 (centres unmarked) [Compound 303]	5.47 (≈ 10.7 µM)	–	6.88 (≈ 13.5 µM)	–
CSc1ccc2[nH]c(=O)c(C(c3ccc(Cl)cc3)C3(O)CCNC(c4ccc(F)cc4C)C3)cc2c1 (centres unmarked) [Compound 277]	1.40 (≈ 2.68 µM)	1.76 (≈ 3.36 µM)	–	–
COc1nc2ccc(SC(C)C)cc2cc1C(c1ccc(Cl)cc1)C1(O)CCNC(Cc2ccccc2)C1 (centres unmarked) [Compound 382]	–	–	3.45 (≈ 6.31 µM)	2.18 (≈ 3.98 µM)
COc1nc2ccccc2cc1C(c1ccccc1)C1(O)CCNC(c2ccccc2)C1 (centres unmarked) [Compound 415]	>15.47	15.47 (≈ 36.4 µM)	–	–
COc1nc2ccc(Cl)cc2cc1C(c1ccc(Cl)cc1)C1(O)CCNC(Cc2ccc(F)cc2)C1 (centres unmarked) [Compound 348]	1.67 (≈ 3.18 µM)	4.19 (≈ 7.97 µM)	–	–
CSc1ccc2[nH]c(=O)c(C(c3ccc(Cl)cc3)C3(O)CCNC(Cc4ccc(F)cc4)C3)cc2c1 (centres unmarked) [Compound 333]	3.53 (≈ 6.75 µM)	2.50 (≈ 4.78 µM)	–	–
COc1nc2ccc(S(C)(=O)=O)cc2cc1C(c1ccc(Cl)cc1)C1(O)CCNC(Cc2ccc(F)c(F)c2)C1 (centres unmarked) [Compound 210]	2.94 (≈ 5.01 µM)	1.86 (≈ 3.17 µM)	–	–

SMILES	IC90 MSM 607 [1] [µg/mL]	IC90 STA B29213 [2] [µg/mL]	IC90 [2] [µg/mL]	IC90 [1] [µg/mL]
Cc1cc(F)ccc1C1CC(O)(C(c2cccc(Cl)c2)c2cc3cc(Br)ccc3[nH]c2=O)CCN1 (centres unmarked) [Compound 145]	2.32 (≈ 4.17 µM)	2.92 (≈ 5.25 µM)	–	–
CSc1ccc2[nH]c(=O)c(C(c3ccc(Cl)cc3)C3(O)CCNC(c4ccccc4)C3)cc2c1 (centres unmarked) [Compound 235]	6.60 (≈ 13.4 µM)	4.17 (≈ 8.49 µM)	–	–
Cc1cc(F)ccc1C1CC(O)(C(c2ccc(Cl)cc2)c2cc3cc(Cl)ccc3[nH]c2=O)CCN1 (centres unmarked) [Compound 304]	1.73 (≈ 3.38 µM)	3.45 (≈ 6.75 µM)	–	–
COc1nc2ccccc2cc1C(c1ccccc1)C1(O)CCNC(c2ccccc2)C1 (centres unmarked) [Compound 414]	18.39 (≈ 43.3 µM)	18.39 (≈ 43.3 µM)	–	–
COc1nc2ccccc2cc1C(c1ccccc1)C1(O)CCNC(Cc2ccccc2)C1 (centres unmarked) [Compound 399]	–	–	> 12.5	> 12.5
COc1nc2ccc(F)cc2cc1C(c1ccc(SC)cc1)C1(O)CCNC(c2ccc(F)cc2C)C1 (centres unmarked) [Compound 407]	1.17 (≈ 2.25 µM)	1.65 (≈ 3.17 µM)	–	–
Cc1cc(F)ccc1C1CC(O)(C(c2cccc(Cl)c2)c2cc3cc(Br)ccc3[nH]c2=O)CCN1 (centres unmarked) [Compound 137]	1.65 (≈ 2.97 µM)	3.69 (≈ 6.64 µM)	–	–
Cc1cc(F)ccc1C1CC(O)(C(c2ccc(Cl)cc2)c2cc3cc(Br)ccc3[nH]c2=O)CCN1 (centres unmarked) [Compound 110]	1.87 (≈ 3.36 µM)	1.87 (≈ 3.36 µM)	–	–
O=c1[nH]c2ccc(Br)cc2cc1C(c1ccc(Cl)cc1)C1(O)CCNC(Cc2ccc(F)cc2)C1 (centres unmarked) [Compound 364]	2.97 (≈ 5.34 µM)	3.74 (≈ 6.73 µM)	–	–
COc1nc2ccc(F)cc2cc1C(c1ccc(Cl)cc1)C1(O)CCN(C(C)c2ccccc2)C(CO)C1 (centres unmarked) [Compound 437]	–	13.44 (≈ 25.1 µM)	–	–
O=c1[nH]c2ccc(Br)cc2cc1C(c1ccc(Cl)cc1)C1(O)CCNC(Cc2ccccc2)C1 (centres unmarked) [Compound 128]	–	4.56 (≈ 8.48 µM)	–	3.62 (≈ 6.73 µM)
COc1nc2ccccc2cc1C(c1ccc(Cl)cc1)C1(O)CCNC(c2cccnc2)C1 (centres unmarked) [Compound 27]	–	–	11.6 (≈ 25.1 µM)	7.29 (≈ 15.8 µM)
COc1nc2ccc(-c3cccnc3)cc2cc1C(c1ccc(Cl)cc1)C1(O)CCNC(Cc2ccccc2)C1 (centres unmarked) [Compound 80]	–	–	4.37 (≈ 7.94 µM)	–
CC1CC(O)(C(c2ccc(Cl)cc2)c2cc3cc(Br)ccc3[nH]c2=O)CCN1 (centres unmarked) [Compound 132]	9.21 (≈ 19.9 µM)	–	–	–
COc1nc2ccc(Br)cc2cc1C(c1ccccc1)C1(O)CCNC(Cc2ccccc2)C1 (centres unmarked) [Compound 72]	–	–	4.11 (≈ 7.94 µM)	–
COc1nc2ccc(Cl)cc2cc1C(c1ccc(Cl)cc1)C1(O)CCNC(c2ccc3ccccc3c2)C1 (centres unmarked) [Compound 440]	–	8.61 (≈ 15.8 µM)	–	–
COc1nc2ccc(Cl)cc2cc1C(c1ccc(Cl)cc1)C1(O)CCNC(c2ccc3ccccc3c2)C1 (centres unmarked) [Compound 441]	–	12.17 (≈ 22.4 µM)	–	–
COc1nc2ccc(Br)cc2cc1C(c1ccc(Cl)cc1)C1(O)CCN(Cc2ccccc2)CC1C (centres unmarked) [Compound 26]	–	>44.79	–	–
